Measurements taken from publication PMC9919730, “A Versatile Continuous Fluorometric Enzymatic Assay for Targeting Nicotinate Phosphoribosyltransferase” (Molecules, 2023).
“Also recorded” adds a separate entry of the source. Like-named read-outs stand apart in the source and are kept apart here. One block for each molecule: values may come before it.

Tests used:
[1] = target: T1, human recombinant NAPRT (Homo sapiens, UniProt Q6XQN6); test: Continuous coupled fluorometric NADH assay of NAPRT activity; settings: for Inhibitory activity against NAPRT (in words): screening at 0.5 mM
T1 sequence (Q6XQN6 1-538): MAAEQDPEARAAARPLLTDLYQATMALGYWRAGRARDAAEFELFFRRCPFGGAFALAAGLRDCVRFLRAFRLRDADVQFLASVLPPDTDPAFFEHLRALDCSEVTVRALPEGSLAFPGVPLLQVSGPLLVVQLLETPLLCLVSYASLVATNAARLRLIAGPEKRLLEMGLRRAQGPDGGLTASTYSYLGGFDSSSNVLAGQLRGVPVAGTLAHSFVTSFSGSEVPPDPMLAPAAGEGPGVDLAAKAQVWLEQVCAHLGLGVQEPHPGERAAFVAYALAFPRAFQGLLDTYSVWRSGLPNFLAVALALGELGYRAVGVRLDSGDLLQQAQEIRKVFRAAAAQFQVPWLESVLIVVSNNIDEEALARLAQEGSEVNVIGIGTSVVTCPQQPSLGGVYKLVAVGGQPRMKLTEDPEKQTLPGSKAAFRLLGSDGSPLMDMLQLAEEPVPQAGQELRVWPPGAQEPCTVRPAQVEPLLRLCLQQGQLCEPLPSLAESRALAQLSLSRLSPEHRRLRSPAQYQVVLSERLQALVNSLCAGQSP
Method: NADH fluorescence was monitored continuously at 37 °C for 30 min, using a 96-well plate in a Sinergy HT microplate reader (Bio-Tek, Winooski, VT, USA) set at excitation and emission wavelengths of 340 nm and 460 nm, respectively. The slope of the linear fit of fluorescence versus time was used to calculate the NAPRT activity by referring to an NADH standard curve, obtained by plotting the fluorescence of a known amount of NADH versus the nucleotide concentrations. […] These mixtures were optimized to make NadD the rate-limiting enzyme of the ancillary system, i.e., concentrations of the enzyme NadD and the NAMN substrate were chosen to guarantee a linear time course of the fluorescence increase up to 30 min.
The analyzed compounds were dissolved in 100% v/v DMSO. Few compounds were dissolved in water. The compounds were tested at a 0.5 mM concentration. […] The screening was started by using the NADH assay. […] The fluorescence increase was monitored continuously, which allowed us to easily estimate the quality of data and to identify potential artifacts (e.g., arising from compounds precipitation). […] One inhibitor control for each tested compound (compound and no NAPRT), as well as four positive controls (NAPRT and no compound) and four negative controls (no NAPRT and no compound) were included in every reaction plate. The percentage inhibition was calculated relative to the controls as follows: % inhibition=(Si−Ci)/(µp−µn)×100 where Si represents the signal in the presence of the compound; Ci is the signal of the inhibitor control; and µp and µn are the mean values of the signals of the positive and negative controls, respectively.
The IC50 value was determined by plotting the rates versus inhibitor concentration and fitting to the equation: Vi = V0/(1 + [I]/IC50) using GraphPad Prism 7. V0 and Vi represent initial rates in the absence and presence of the inhibitor at concentration [I], respectively.
Ki values were calculated from the straight line deriving from the replotting of the slopes of the reciprocal plot against the concentrations of the inhibitor (secondary plot). In particular, the straight line intersects the x-axis at [I] = −Ki [28].

[2] = target: T1, human recombinant NAPRT; test: Resazurin/diaphorase-coupled assay of NAPRT activity; format: biochemical; set-up: inferred from purification on a HisTrap IMAC column with imidazole elution; made in house; host or cells: E. coli BL21 (D3); settings: 0.5 mM compound; 0.1 mM NA, 0.4 mM PRPP; resazurin/diaphorase-coupled assay (optical interference at NADH wavelength)
Method: The NAPRT concentration was 0.004 × 10^−3 U/mL (2 nM). […] The increase in fluorescence due to resorufin formation in the assay was monitored continuously for 30 min, at 590 nm, after excitation at 530 nm, using a 96-well plate in the Sinergy HT microplate reader at 37 °C. […] To determine the NAPRT activity, the first derivative of the recorded fluorescence curve was calculated, and the slope of the corresponding curve was referred to a standard curve obtained by plotting the fluorescence rate recorded in assay mixtures containing known amounts of NAD^+ in the absence of NAPRT, NadD, and NadE versus the dinucleotide concentrations.
The analyzed compounds were dissolved in 100% v/v DMSO. Few compounds were dissolved in water. The compounds were tested at a 0.5 mM concentration. […] The screening was started by using the NADH assay. […] One inhibitor control for each tested compound (compound and no NAPRT), as well as four positive controls (NAPRT and no compound) and four negative controls (no NAPRT and no compound) were included in every reaction plate. The percentage inhibition was calculated relative to the controls as follows: % inhibition=(Si−Ci)/(µp−µn)×100 where Si represents the signal in the presence of the compound; Ci is the signal of the inhibitor control; and µp and µn are the mean values of the signals of the positive and negative controls, respectively.

[3] = tested on: OVCAR-5 cells; test: Cell viability, sulforhodamine B assay, with or without FK866; format: cell-based; settings: for Sensitization of cells to FK866 (cell viability in combination): 200 µM compound with FK866 0 to 100 nM; for Combination index (CI): CompuSyn; for viability at 200 µM: Homo sapiens, OVCAR-5, 200 µM compound with 3 nM FK866, 72 h
Method: The OVCAR-5 cell line was obtained from the NCI-60 panel. Cells were seeded in 96-well plates (3 × 10^3 cells/well) and were treated with the selected compounds at a 200 µM final concentration or with 0.2% DMSO the day after, in combination with increasing concentrations of FK866, ranging from 0 to 100 nM. Treated cells were incubated at 37 °C and 5% CO2 for 72 h. At the end of the treatment, trichloroacetic acid (TCA) (10% final concentration) was added to each well. After 20 min at 4 °C, the wells were washed 4 times with tap water to remove TCA, and they were let to dry. Cell viability was evaluated with the sulforhodamine B assay, as previously described.

[4] = tested on: OVCAR-5 cells; test: Intracellular NAD+ levels measurement (cycling assay); format: cell-based; settings: for Effect on NAD+ levels combined with FK866: 200 µM compound with 3 nM FK866, 24 h; for NAD levels: 200 µM compound with 3 nM FK866, after 72 h of incubation as printed
Method: The compounds were prepared as described above. OVCAR-5 cells were seeded in a 12-well plate (1 × 10^5/well). The day after, cells were treated with combinations of each selected compound (200 µM, final concentration) and FK866 (3 nM, final concentration) and were incubated at 37 °C and 5% CO2. […] Cell lysates were subsequently collected, transferred to new tubes, and diluted in 100 mM Na2HPO4 at pH 8. To determine the amount of NAD^+, we utilized a sensitive cyclic assay that takes advantage of the enzymatic activity of ADH [23]. Briefly, 0.1 mL of the cycling reagent (2% (v/v) ethanol, 100 μg/mL ADH, 20 μM resazurin, 5 μg/mL diaphorase, 10 μM FMN, 10 mM nicotinamide, and 100 mM sodium phosphate, pH 8.0) were added to each well, containing 0.1 mL of each diluted sample. The increase in resorufin fluorescence (544 nm excitation, 590 nm emission) was measured every min over a 2 h period using a fluorescence plate reader (Fluostar Optima, BMG Labtechnologies GmbH, Offenburg, Germany). A NAD^+ standard curve was always run in parallel in each assay.

[5] = target: T1, human recombinant NAPRT; test: HPLC assay of NAPRT activity; format: biochemical; set-up: inferred from purification on a HisTrap IMAC column with imidazole elution; made in house; host or cells: E. coli BL21 (D3); settings: 0.5 mM compound; 0.1 mM NA, 0.4 mM PRPP; HPLC assay (interference with both fluorometric assays)
Method: The amount of enzyme was optimized to provide substrate consumption below 20% of the initial concentration after 10 min of incubation at 37 °C. In addition, withdrawals from the reaction mixture at 5 and 10 min were always performed to ensure a linear time frame. The reaction was stopped by acidification with 0.6 M HClO4. After 10 min on ice, samples were clarified by centrifugation for 2 min at 13,000× g. The supernatants were neutralized with 0.8 M K2CO3, frozen at −20 °C for about 20 min, centrifuged at 13,000× g for 5 min, and injected onto a Supelcosil LC-18-S column (5 µm; 250 × 4.6 mm) thermostatted at 8 °C. […] The elution was monitored at 260 nm (Shimadzu SPD-M20A), and the formed NAMN was quantified by referring to an appropriate standard.
The analyzed compounds were dissolved in 100% v/v DMSO. […] The fluorescence increase was monitored continuously, which allowed us to easily estimate the quality of data and to identify potential artifacts (e.g., arising from compounds precipitation). […] The percentage inhibition was calculated relative to the controls as follows: % inhibition=(Si−Ci)/(µp−µn)×100 where Si represents the signal in the presence of the compound; Ci is the signal of the inhibitor control; and µp and µn are the mean values of the signals of the positive and negative controls, respectively.

[6] = substrate: O=C(O)c1cccnc1; test: purified protein, by the assay type; settings: other: kinetics in the absence of the inhibitor; 0.4 mM PRPP; pH 7.5; 37.0 °C
[7] = 0.5 mM compound, 0.1 mM NA, 0.4 mM PRPP, NADH assay
[8] = towards NA, NA 10 to 50 µM at 0.4 mM PRPP, NADH assay
[9] = FK866 dose 3 nM with 200 µM compound
[10] = FK866 dose 10 nM with 200 µM compound
[11] = FK866 dose 30 nM with 200 µM compound
[12] = FK866 dose 100 nM with 200 µM compound

inhibition at 500 µM [1, 7]: 0%
Molecule: O=C(O)c1ccncc1 [Compound 27, isonicotinic acid]

inhibition at 500 µM [1, 7]: 0%
Molecule: Cc1cnc(C(=O)O)c[n+]1[O-] [Compound 14, Acipimox]

inhibition at 500 µM [1, 7]: ≤ 20%
Molecule: O=C(O)c1ncccn1 [Compound 29, 2-pyrimidine carboxylic acid]

inhibition at 500 µM [1, 7]: 11%
Molecule: CC(=O)Oc1ccccc1C(=O)O [Compound 18, acetyl salicylic acid]

inhibition at 500 µM [1, 7]: 0% | Inhibitory activity against NAPRT (in words) [1]: inactive
Molecule: CC(=O)Nc1ccccc1 [Compound 37, acetanilide]

inhibition at 500 µM [5]: 5%
Molecule: Nc1c(O)cccc1C(=O)O [Compound 21, 3-hydroxy anthranilic acid]

IC50 [1]: 351 ± 19 µM | Ki [1]: 169 ± 15 µM | inhibition at 500 µM [1, 7]: 58%
Molecule: O=C(O)c1ccccc1O [Compound 17, salicylic acid]
Effect on cell viability in the absence of FK866 ([3]; 200 µM compound, 72 h, no FK866): toxicity | Inhibition Mechanism [1, 8]: noncompetitive inhibition; also recorded: non- competitive

inhibition at 500 µM [1, 7]: ≤ 20%
Molecule: O=C(O)c1cncnc1 [Compound 28, 5-pyrimidine carboxylic acid]

inhibition at 500 µM [1, 7]: 0%
Molecule: NC(=O)c1cnccn1 [Compound 12, pyrazinamide]

IC50 [1]: 1370 ± 74 µM | Ki [1]: 513 ± 13 µM | inhibition at 500 µM [1, 7]: 30% | Inhibition Mechanism [1, 8]: mixed inhibitor
Molecule: O=C(O)c1cccnn1 [Compound 15, 3-pyridazine carboxylic acid]

inhibition at 500 µM [1, 7]: 6%
Molecule: O=C(O)c1ccccn1 [Compound 25, 2-picolinic acid]

inhibition at 500 µM [1, 7]: 0% | Inhibitory activity against NAPRT (in words) [1]: inactive
Molecule: NC1CCC(C(=O)O)CC1 (stereo not drawn) [Compound 35, 4-aminocyclohexane carboxylic acid]

inhibition at 500 µM [1, 7]: 0%
Molecule: O=C(O)Cc1cnccn1 [Compound 13, 2-pyrazine acetic acid]

inhibition at 500 µM [1, 7]: 0% | Inhibitory activity against NAPRT (in words) [1]: very poor inhibitors
Molecule: Oc1ncccn1 [Compound 32, 2-hydroxypyrimidine]

inhibition at 500 µM [5]: 5%
Molecule: O=C(O)c1ccccc1N=Nc1ccc(O)cc1 [Compound 22, 2-(4-hydroxyphenylazo) benzoic acid]

More lines, now with the values behind:

Molecule: O=C(O)c1ccc(Cl)nc1 [Compound 4, 6-chloronicotinic acid]
IC50 [1]: 1260 ± 115 µM | Inhibition Mechanism [1]: 845 ± 69 non-competitive | Ki [1]: 845 ± 69 µM | inhibition at 500 µM [1]: 44%

Molecule: O=C(O)c1cccc(N2CCOCC2)c1 [Compound 24, 3-morpholinobenzoic acid]
inhibition at 500 µM [2]: 0%

Molecule: O=C(O)c1ccc(O)nc1 [Compound 8, 6-hydroxynicotinic acid]
inhibition at 500 µM [1]: 0%

Molecule: O=C(O)c1cccnc1F [Compound 3, 2-fluoronicotinic acid]
Sensitization of cells to FK866 (cell viability in combination) ([3]; 72 h): did not significantly sensitize cells to FK866 toxicity | IC50 [1]: 351 ± 38 µM | Ki [1]: 149 ± 14 µM | inhibition at 500 µM [1, 7]: 57% | Inhibition Mechanism [1, 8]: non-competitive

Molecule: O=C(O)c1ccccc1 [Compound 19, benzoic acid]
inhibition at 500 µM [1]: 8%

Molecule: O=C(O)c1cccnc1C(=O)O [Compound 7, 2,3-pyridine dicarboxylic acid]
inhibition at 500 µM [1, 7]: 9%

Molecule: Nc1ccccc1C(=O)O [Compound 20, anthranilic acid]
inhibition at 500 µM [1]: 5%

Molecule: O=C(O)c1cnccn1 [Compound 9, pyrazine-2-carboxylic acid]
Sensitization of cells to FK866 (cell viability in combination) ([3]; 72 h): reduced cell viability when combined with FK866 | Sensitization of cells to FK866 (cell viability in combination) ([3]; 72 h, listed as pyrazine-2-carboxylic acid): sensitize OVCAR-5 cells to the NAMPT inhibitor FK866 | Combination index (CI) [3, 9]: 0.198 | Combination index (CI) [3, 10]: 0.0673 | Combination index (CI) [3, 11]: 0.03276 | Combination index (CI) [3, 12]: 0.01211 | viability at 200 µM [3]: ~80% | Effect on NAD+ levels combined with FK866 [4]: most effective | NAD levels [4]: ~30%

Molecule: c1cnc(N2CCNCC2)nc1 [Compound 33, 2-(1-piperazinyl)pyrimidine]
inhibition at 500 µM [1, 7]: 0% | Inhibitory activity against NAPRT (in words) [1]: very poor inhibitors

Molecule: Nc1nccnc1C(=O)O [Compound 10, 3-aminopyrazine-2-carboxylic acid]
inhibition at 500 µM [2]: 6%

Molecule: O=C(O)c1cccnc1O [Compound 1, 2-hydroxynicotinic acid]
Sensitization of cells to FK866 (cell viability in combination) ([3]; 72 h): reduced cell viability when combined with FK866 | Sensitization of cells to FK866 (cell viability in combination) ([3]; 72 h, listed as 2-hydroxynicotinic acid): sensitize OVCAR-5 cells to the NAMPT inhibitor FK866; also recorded: effective in sensitizing tumor cells to NAMPT inhibitors | Combination index (CI) [3, 9]: 0.5117 | Combination index (CI) [3, 10]: 0.3255 | Combination index (CI) [3, 11]: 0.339 | Combination index (CI) [3, 12]: 0.3592 | viability at 200 µM [3]: ~75% | Effect on NAD+ levels combined with FK866 [4]: most effective | NAD levels [4]: about 15%

Molecule: Nc1ncccc1C(=O)O [Compound 2, 2-aminonicotinic acid]
Sensitization of cells to FK866 (cell viability in combination) ([3]; 72 h): did not significantly sensitize cells to FK866 toxicity | IC50 [1]: 609 ± 69 µM | Ki [1]: 348 ± 36 µM | inhibition at 500 µM [1, 7]: 38% | Inhibition Mechanism [1, 8]: mixed

B1: human recombinant NAPRT (Homo sapiens) (protein)
chain: MAAEQDPEARAAARPLLTDLYQATMALGYWRAGRARDAAEFELFFRRCPFGGAFALAAGLRDCVRFLRAFRLRDADVQFLASVLPPDTDPAFFEHLRALDCSEVTVRALPEGSLAFPGVPLLQVSGPLLVVQLLETPLLCLVSYASLVATNAARLRLIAGPEKRLLEMGLRRAQGPDGGLTASTYSYLGGFDSSSNVLAGQLRGVPVAGTLAHSFVTSFSGSEVPPDPMLAPAAGEGPGVDLAAKAQVWLEQVCAHLGLGVQEPHPGERAAFVAYALAFPRAFQGLLDTYSVWRSGLPNFLAVALALGELGYRAVGVRLDSGDLLQQAQEIRKVFRAAAAQFQVPWLESVLIVVSNNIDEEALARLAQEGSEVNVIGIGTSVVTCPQQPSLGGVYKLVAVGGQPRMKLTEDPEKQTLPGSKAAFRLLGSDGSPLMDMLQLAEEPVPQAGQELRVWPPGAQEPCTVRPAQVEPLLRLCLQQGQLCEPLPSLAESRALAQLSLSRLSPEHRRLRSPAQYQVVLSERLQALVNSLCAGQSP
Km [6]: 15 ± 6 µM
